Series [1] concerns the target hCA I (Homo sapiens, UniProt P00915). Nature of the series: stopped-flow CO2 hydrase assay, hCA I.
Method: (§1) The newly synthesized 1,2,3-triazole linked triazino[5,6-b]indole-benzene sulfonamide hybrids (6a–6o) were evaluated for their carbonic anhydrase inhibitory activity against a panel of carbonic anhydrases, i.e., hCA I, hCA II, hCA IX, and hCA XIII, by the stopped-flow CO2 hydrase assay method. Highly purified CA isoforms were employed, for which the kinetic parameters for the physiologic reaction (CO2 hydration) were measured (see the Experimental section for details), monitoring the color change produced by the formation of H^+ ions (and bicarbonate). […] All the newly synthesized analogs were evaluated in vitro for their inhibitory activity against a panel of recombinant CA isoforms, i.e., hCA I, hCA II, hCA IX, and hCA XIII, obtained inhouse, using the stopped-flow CO2 hydrase assay.
(§2) An SX.18 V-R Applied Photophysics (Oxford, UK) stopped-flow instrument was used to assay the catalytic inhibition of various CA enzymes [32]. […] IC50-s values were calculated from the enzyme activity (as kcat, see Table 2) with respect to the inhibitor concentration.
For series [2], the target named is hCA II (Homo sapiens, UniProt P00918). The series is described as follows: stopped-flow CO2 hydrase assay, hCA II.
Method: as §1, §2
For series [3], the target named is hCA IX (Homo sapiens, UniProt Q16790). The series is described as follows: stopped-flow CO2 hydrase assay, hCA IX.
Method: as §1, §2
Series [4] addresses hCA XIII (Homo sapiens, UniProt Q8N1Q1). The series is described as follows: stopped-flow CO2 hydrase assay, hCA XIII.
Method: as §1, §2

pKi: −log10 of the molar value.

The melting point is the temperature of the solid-liquid transition. As usually defined, the pKi is −log10 of the Ki, conventionally taken in molar units.

Sequence of hCA I (P00915 whole entry): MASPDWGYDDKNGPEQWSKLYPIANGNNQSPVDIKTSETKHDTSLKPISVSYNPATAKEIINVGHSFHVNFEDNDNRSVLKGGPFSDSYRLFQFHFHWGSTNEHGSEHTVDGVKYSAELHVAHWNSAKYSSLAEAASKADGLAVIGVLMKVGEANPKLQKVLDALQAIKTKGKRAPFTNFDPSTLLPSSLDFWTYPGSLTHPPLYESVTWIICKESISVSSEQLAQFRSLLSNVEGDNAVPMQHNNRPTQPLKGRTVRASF
Sequence of hCA XIII (Q8N1Q1 whole entry): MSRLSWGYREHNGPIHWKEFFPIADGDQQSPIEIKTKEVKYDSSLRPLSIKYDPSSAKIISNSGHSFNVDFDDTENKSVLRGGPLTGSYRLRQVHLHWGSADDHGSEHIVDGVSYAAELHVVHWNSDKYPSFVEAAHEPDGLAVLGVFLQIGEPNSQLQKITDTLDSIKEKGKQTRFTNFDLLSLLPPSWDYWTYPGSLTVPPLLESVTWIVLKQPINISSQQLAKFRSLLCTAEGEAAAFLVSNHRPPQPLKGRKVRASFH

The molecule `CCCn1c2ccc(F)cc2c2nnc(SCc3cn(-c4ccc(S(N)(=O)=O)cc4)nn3)nc21` [Compound 6h] came in with a melting point of 240 to 242 °C. The molecule further gave a pKi in series [1] of 6.12. The pKi in series [2] is 6.17. Moreover, in series [3], the negative logarithm of the Ki (pKi) is 6.93. Moreover, the negative-log Ki (pKi) in series [4] is 5.74.

For the molecule `CCCn1c2ccccc2c2nnc(SCc3cn(-c4ccc(S(N)(=O)=O)cc4)nn3)nc21` [Compound 6c], the melting point lay within 261 to 263 °C. In series [1], this molecule showed a negative logarithm of the Ki (pKi) of 5.40. The molecule also had a pKi in series [2] of 7.05. For the same molecule, the negative-log Ki (pKi) in series [3] is 6.66. Also, the pKi in series [4] is 6.44.

In turn, `CCn1c2ccccc2c2nnc(SCc3cn(-c4ccc(S(N)(=O)=O)cc4)nn3)nc21` [Compound 6b] yielded a melting point of 202 to 204 °C. Moreover, the pKi in series [1] was 6.19. This molecule showed a pKi in series [2] of 7.14. In series [3], this molecule showed a pKi of 6.76. The molecule also showed a pKi in series [4] of 7.16.

In the case of `CC(C)n1c2ccc(F)cc2c2nnc(SCc3cn(-c4ccc(S(N)(=O)=O)cc4)nn3)nc21` [Compound 6i], the melting point lay in the range of 235 to 237 °C. Further, in series [1], the pKi is 6.42. The molecule further showed a negative logarithm of the Ki (pKi) in series [2] of 8.11. The molecule further had a pKi in series [3] of 7.46. Also, the pKi in series [4] is 6.13.

As to `C=CCn1c2ccc(F)cc2c2nnc(SCc3cn(-c4ccc(S(N)(=O)=O)cc4)nn3)nc21` [Compound 6j], the melting point is 245 to 247 °C. This molecule showed a pKi in series [1] of 5.34. This molecule also gave a negative-log Ki (pKi) in series [2] of 7.13. The same molecule gave a pKi in series [3] of 6.40. The pKi in series [4] was 6.10.

In the case of `CCn1c2ccc(F)cc2c2nnc(SCc3cn(-c4ccc(S(N)(=O)=O)cc4)nn3)nc21` [Compound 6g], the melting point lay within 246 to 248 °C. In series [1], the negative logarithm of the Ki (pKi) was 6.16. The pKi in series [2] is 7.19. The same molecule showed a negative-log Ki (pKi) in series [3] of 6.71. The molecule also gave a pKi in series [4] of 6.17.

Take `CCCn1c2ccc(Cl)cc2c2nnc(SCc3cn(-c4ccc(S(N)(=O)=O)cc4)nn3)nc21` [Compound 6m]: the melting point fell in the range of 257 to 262 °C. Also, the pKi in series [1] is 5.19. In series [2], this molecule gave a pKi of 7.21. The same molecule gave a pKi in series [3] of 6.69. This molecule also gave a pKi in series [4] of 6.08.

Regarding `CC(C)n1c2ccccc2c2nnc(SCc3cn(-c4ccc(S(N)(=O)=O)cc4)nn3)nc21` [Compound 6d], the melting point fell in the range of 213 to 215 °C. This molecule also gave a negative-log Ki (pKi) in series [1] of 6.50. Moreover, the pKi in series [2] is 7.68. The pKi in series [3] is 7.42. Besides, the pKi in series [4] was 7.18.

On to `C=CCn1c2ccc(Cl)cc2c2nnc(SCc3cn(-c4ccc(S(N)(=O)=O)cc4)nn3)nc21` [Compound 6o], for which the melting point lay within 261 to 264 °C. Further, in series [1], the pKi is 6.16. In addition, the negative-log Ki (pKi) in series [2] is 7.01. The negative logarithm of the Ki (pKi) in series [3] was 6.49. In series [4], this molecule had a pKi of 5.64.

The molecule `Cn1c2ccc(F)cc2c2nnc(SCc3cn(-c4ccc(S(N)(=O)=O)cc4)nn3)nc21` [Compound 6f] yielded a melting point of 244 to 246 °C. Moreover, in series [1], the negative logarithm of the Ki (pKi) is 6.12. Also, the negative-log Ki (pKi) in series [2] was 7.22. Besides, the negative-log Ki (pKi) in series [3] is 7.38. Also, the pKi in series [4] was 6.08.

With `Cn1c2ccccc2c2nnc(SCc3cn(-c4ccc(S(N)(=O)=O)cc4)nn3)nc21` [Compound 6a], the melting point lay within 235 to 240 °C. The molecule also gave a pKi in series [1] of 6.04. For the same molecule, the pKi in series [2] was 7.18. The negative-log Ki (pKi) in series [3] was 6.54. Moreover, in series [4], the pKi was 7.11.

In turn, `C=CCn1c2ccccc2c2nnc(SCc3cn(-c4ccc(S(N)(=O)=O)cc4)nn3)nc21` [Compound 6e] had a melting point of 230 to 232 °C. This molecule showed a pKi in series [1] of 6.27. The molecule also showed a negative logarithm of the Ki (pKi) in series [2] of 7.38. In series [3], this molecule showed a pKi of 7.39. The molecule also had a pKi in series [4] of 6.20.

`CCn1c2ccc(Cl)cc2c2nnc(SCc3cn(-c4ccc(S(N)(=O)=O)cc4)nn3)nc21` [Compound 6l] came in with a melting point of 252 to 256 °C. In series [1], this molecule showed a negative-log Ki (pKi) of 5.55. Besides, in series [2], the negative logarithm of the Ki (pKi) was 6.73. For the same molecule, in series [3], the negative-log Ki (pKi) was 6.82. The molecule further showed a pKi in series [4] of 5.40.

Turning to `CC(C)n1c2ccc(Cl)cc2c2nnc(SCc3cn(-c4ccc(S(N)(=O)=O)cc4)nn3)nc21` [Compound 6n], the melting point is 263 to 265 °C. Moreover, the negative logarithm of the Ki (pKi) in series [1] is 6.24. In series [2], the negative logarithm of the Ki (pKi) is 6.75. The pKi in series [3] was 6.49. In addition, in series [4], the pKi was 7.04.

As to `Cn1c2ccc(Cl)cc2c2nnc(SCc3cn(-c4ccc(S(N)(=O)=O)cc4)nn3)nc21` [Compound 6k], the melting point fell in the range of 243 to 248 °C. The molecule also had a pKi in series [1] of 5.29. Also, the negative logarithm of the Ki (pKi) in series [2] was 6.60. Besides, the pKi in series [3] is 6.48. Further, the pKi in series [4] was 6.06.

The values above are taken from paper PMC7281265, “Design, Synthesis, and Biological Evaluation of 1,2,3-Triazole-linked triazino[5,6-b]indole-benzene sulfonamide Conjugates as Potent Carbonic Anhydrase I, II, IX, and XIII Inhibitors” (Metabolites, 2020).
